Measurements: ChEMBL document CHEMBL1671731, “Fluoroquinolone efflux by the plasmid-mediated multidrug efflux pump QacB variant QacBIII in Staphylococcus aureus” (2010)
Converted amounts (≈) assume the structure as drawn. The source made the active and inactive calls. No cut-off for these calls is given here.

Tests used:
Staphylococcus aureus [1] = assay: Antimicrobial activity against Staphylococcus aureus RDN1 harboring cloned pTZ2396-encoded QacA gene by agar dilution method; type: functional
[2] = Activity of antiseptic efflux protein QacBIII expressed in Staphylococcus aureus RDN1 assessed as decrease in compound accumulation in presence of CCCP
Staphylococcus aureus [3] = assay: Antimicrobial activity against Staphylococcus aureus RDN1 harboring cloned pTZ2182-encoded QacBII gene by agar dilution method; type: functional
Staphylococcus aureus [4] = assay: Antimicrobial activity against Staphylococcus aureus RDN1 harboring cloned pTZ2238-encoded QacBIV gene by agar dilution method; type: functional
Staphylococcus aureus [5] = assay: Antimicrobial activity against Staphylococcus aureus RDN1 harboring cloned pTZN10 containing cat and bla genes by agar dilution method; type: functional
[6] = Activity of antiseptic efflux protein QacBIII expressed in Staphylococcus aureus RDN1 assessed as decrease in compound accumulation
Staphylococcus aureus [7] = assay: Antimicrobial activity against Staphylococcus aureus RDN1 harboring cloned pTZ2162-encoded QacBIII E320A mutant gene by agar dilution method; type: functional
Staphylococcus aureus [8] = assay: Antimicrobial activity against Staphylococcus aureus RDN1 harboring cloned pTZ2162-encoded QacBIII gene by agar dilution method; type: functional
Staphylococcus aureus [9] = assay: Antimicrobial activity against Staphylococcus aureus RDN1 harboring cloned pTZ2238-encoded QacBIV S151I mutant gene by agar dilution method; type: functional
Staphylococcus aureus [10] = assay: Antimicrobial activity against Staphylococcus aureus RDN1 harboring cloned pTZ2238-encoded QacBIV A19T mutant gene by agar dilution method; type: functional
Staphylococcus aureus [11] = assay: Antimicrobial activity against Staphylococcus aureus RDN1 harboring cloned pTZ2238-encoded QacBIV A184V mutant gene by agar dilution method; type: functional
Staphylococcus aureus [12] = assay: Antimicrobial activity against Staphylococcus aureus RDN1 harboring cloned pTZ2238-encoded QacBIV E377G mutant gene by agar dilution method; type: functional

Row | Compound | MIC (Staphylococcus aureus [1]) [µg/mL] | Activity [2] | MIC (Staphylococcus aureus [3]) [µg/mL] | MIC (Staphylococcus aureus [4]) [µg/mL] | MIC (Staphylococcus aureus [5]) [µg/mL] | Activity [6] | MIC (Staphylococcus aureus [7]) [µg/mL] | MIC (Staphylococcus aureus [8]) [µg/mL] | MIC (Staphylococcus aureus [9]) [µg/mL] | MIC (Staphylococcus aureus [10]) [µg/mL] | MIC (Staphylococcus aureus [11]) [µg/mL] | MIC (Staphylococcus aureus [12]) [µg/mL]
1 | O=C(O)c1cn(C2CC2)c2cc(N3CCNCC3)c(F)cc2c1=O [CIPROFLOXACIN] | 0.13 (≈ 0.392 µM) | inactive | 0.06 (≈ 0.181 µM) | 0.06 (≈ 0.181 µM) | 0.06 (≈ 0.181 µM) | Active | 0.06 (≈ 0.181 µM) | 0.25 (≈ 0.754 µM) |  |  |  | 
2 | CC[n+]1c(-c2ccccc2)c2cc(N)ccc2c2ccc(N)cc21.[Br-] [HOMIDIUM BROMIDE] | ≥ 2050 |  | ≥ 2050 | ≥ 2050 | 1 |  | ≥ 2050 | 256 | ≥ 2050 | ≥ 2050 | ≥ 2050 | ≥ 2050
3 | N=C(N)c1ccc(OCCCCCOc2ccc(C(=N)N)cc2)cc1.O=S(=O)(O)CCO | 512 |  | 512 | 1020 | 1 |  | 512 | 512 | 1020 | 1020 | 1020 | 512
4 | CN(C)c1ccc(C(=C2C=CC(=[N+](C)C)C=C2)c2ccc(N(C)C)cc2)cc1.[Cl-] [GENTIAN VIOLET] | ≥ 1 |  | ≥ 1 | 0.5 | 0.13 |  | ≥ 1 | 0.5 | 0.5 | 0.5 | 0.5 | ≥ 1
5 | N=C(NCCCCCCNC(=N)NC(=N)Nc1ccc(Cl)cc1)NC(=N)Nc1ccc(Cl)cc1.O=C(O)[C@H](O)[C@@H](O)[C@H](O)[C@H](O)CO | 2 |  | 4 | 4 | 0.25 |  | 4 | 2 | 4 | 4 | 4 | 2
6 | [Cl-].c1ccc([P+](c2ccccc2)(c2ccccc2)c2ccccc2)cc1 [TETRAPHENYLPHOSPHONIUM CHLORIDE] | 256 |  | 256 | 512 | 4 |  | 256 | 512 | 512 | 512 | 512 | 512
7 | CC(=O)NCC(=O)O.N=C(N)c1ccc(/N=N/Nc2ccc(C(=N)N)cc2)cc1 [DIMINAZEN ACETURATE] | 2050 |  | 512 | 2050 | 4 |  | 512 | 1020 | 2050 | 2050 | 2050 | 512
8 | CCn1cc(C(=O)O)c(=O)c2cc(F)c(N3CCNCC3)cc21 [NORFLOXACIN] | 0.25 (≈ 0.783 µM) | inactive | 0.13 (≈ 0.407 µM) | 0.13 (≈ 0.407 µM) | 0.13 (≈ 0.407 µM) | Active | 0.13 (≈ 0.407 µM) | 0.5 (≈ 1.57 µM) |  |  |  | 
9 | C[C@H]1COc2c(N3CCN(C)CC3)c(F)cc3c(=O)c(C(=O)O)cn1c23.C[C@H]1COc2c(N3CCN(C)CC3)c(F)cc3c(=O)c(C(=O)O)cn1c23.O [LEVOFLOXACIN] | 0.25 |  | 0.25 | 0.25 | 0.25 |  | 0.25 | 0.25 |  |  |  | 
10 | C[n+]1c2cc(N)ccc2cc2ccc(N)cc21.[Cl-] [EUFLAVINE] | 1020 |  | 1020 | 1020 | 1 |  | 1020 | 256 | 1020 | 1020 | 1020 | 1020
